In ChEMBL document CHEMBL1139957, “Synthesis of furanosyl alpha-C-glycosides derived from 4-chloro-4-deoxy-alpha-D-galactose and their cytotoxic activities” (2007):

Key:
Format in all cases: functional
A549 [1] = assay: Cytotoxicity against human A549 cells at 50 umol/mL after 48 hrs by MTT assay
A549 [2] = assay: Cytotoxicity against human A549 cells at 100 umol/mL after 48 hrs by MTT assay
A549 [3] = assay: Cytotoxicity against human A549 cells at 200 umol/mL after 48 hrs by MTT assay

CC(=O)c1cc([C@H]2OC[C@@H](O)[C@@H]2Cl)oc1C
Inhibition (A549 [1]): 24.36%
Inhibition (A549 [2]): 31.92%
Inhibition (A549 [3]): 39.36%

CC(=O)c1cc([C@H]2OC[C@@H](N)[C@@H]2Cl)oc1C
Inhibition (A549 [1]): 13.04%
Inhibition (A549 [2]): 24.86%
Inhibition (A549 [3]): 34.57%

CC(=O)c1cc(C2OC[C@@H](O)[C@@H]2O)oc1C (stereo partly drawn)
Inhibition (A549 [1]): 23.14%
Inhibition (A549 [2]): 27.4%
Inhibition (A549 [3]): 33.09%

CCOC(=O)c1cc([C@H]2OC[C@@H](N)[C@@H]2Cl)oc1C
Inhibition (A549 [1]): 10.09%
Inhibition (A549 [2]): 16.29%
Inhibition (A549 [3]): 24.82%

CCOC(=O)c1cc([C@H]2OC[C@@H](N=[N+]=[N-])[C@@H]2Cl)oc1C
Inhibition (A549 [1]): 18.28%
Inhibition (A549 [2]): 19.79%
Inhibition (A549 [3]): 36.89%

CCOC(=O)c1cc([C@H]2OC[C@@H](OS(C)(=O)=O)[C@@H]2Cl)oc1C
Inhibition (A549 [1]): 15.3%
Inhibition (A549 [2]): 18.55%
Inhibition (A549 [3]): 27.87%

CC(=O)c1cc([C@H]2OC[C@@H](N=[N+]=[N-])[C@@H]2Cl)oc1C
Inhibition (A549 [1]): 32.73%
Inhibition (A549 [2]): 48.6%
Inhibition (A549 [3]): 56.7%

CCOC(=O)c1cc([C@H]2OC[C@@H](O)[C@@H]2Cl)oc1C
Inhibition (A549 [1]): 15.15%
Inhibition (A549 [2]): 18.51%
Inhibition (A549 [3]): 25.72%

CC(=O)c1cc([C@H]2OC[C@@H](OS(C)(=O)=O)[C@@H]2Cl)oc1C
Inhibition (A549 [1]): 26.42%
Inhibition (A549 [2]): 35.65%
Inhibition (A549 [3]): 46.8%

CCOC(=O)c1cc([C@H]2OCC(=O)[C@@H]2Cl)oc1C
Inhibition (A549 [1]): 28.81%
Inhibition (A549 [2]): 31.36%
Inhibition (A549 [3]): 45.68%

COC(=O)c1cc([C@H]2OCC(=O)[C@@H]2Cl)oc1C
Inhibition (A549 [1]): 21.49%
Inhibition (A549 [2]): 28.55%
Inhibition (A549 [3]): 37.67%
